This is an account of results in patent US6399335B1, “γ-phosphoester nucleoside triphosphates” (Advanced Research and Technology Institute, Inc., priority 1999, dated 2002).

A value given as a limit tells only on which side of the number the result lay.

Series [1] has as its target brome mosaic virus RdRp (Brome mosaic virus, UniProt P03594). Kind of series: RNA synthesis assay. The series is classed as biochemical. From the text: (§1) PNP-NTPs are useful reporters for the activities of a variety of RNA polymerases. […] PNP release was also observed during RNA synthesis by the SP6 RNA polymerase.
Series [2] deals with RdRp of bovine viral diarrhea virus (Bovine viral diarrhea virus, UniProt P19711). The series can be described thus: RNA synthesis assay. It is filed as biochemical. To be noted: compared with T7 polymerase and brome mosaic virus RdRp results.
Source text: as §1

The nature of series [3]: Stability of PNP-NTPs in plasma (PNP release, absorbance at 405 nm). From the text:
(§2) To test the effect of more complex, biologically relevant mixtures of enzymes on PNP-NTP stability, blood was collected and centrifuged to remove cells and collect the plasma.

The target of series [4] is T7 DNA-dependent RNA polymerase (Escherichia phage T7, UniProt P00573). Kind of series: Colorimetric RNA synthesis / PNP release assay. The series is classed as biochemical. As for the experimental part:
Production of the PNP-NTP analogs. PNP-GTP and PNP-ATP are made in one high yielding reaction from commercially available starting materials (Scheme 1). When the nucleotide analog is used in RNA synthesis, the β and γ phosphates are released (as pyrophosphate) with the attached PNP. While this compound is colorless, the enzyme alkaline phosphatase rapidly hydrolyzes the pyrophosphates to release PNP, which, at the pH of the polymerase reaction, has a yellow color that absorbs maximally at […]. [drawing 4] […]
PNP-NTPs are useful as continuous reporters for RNA polymerase activity. To simplify the components, transcription reactions were performed in the presence of alkaline phosphatase, a homodeoxycytidylate template that directs the incorporation of only guanylates (named WV-15C), PNP-GTP, and T7 RNA polymerase. The use of homopolymers is well accepted in assessing the activities of viral RNA polymerases, including the HCV RdRp (Lohman et al., 1997. J. Virol., 71, 8416). The reaction was monitored in a spectrometer at […], the maximum absorbance for PNP. […] There were several negative controls in this experiment, all of which yielded minimal PNP release: 1) a reaction without T7 RNA polymerase; 2) a reaction that lacked the essential cofactor, Mg^2+; 3) a reaction that contained homothymidylate (WV-15T), rather than WV-15C. […]

Series [5] has as its system alkaline phosphatase. Conditions: incubation with alkaline phosphatase, without T7 RNA polymerase.
Source text: as §2

Sequence of T7 DNA-dependent RNA polymerase (P00573 whole entry): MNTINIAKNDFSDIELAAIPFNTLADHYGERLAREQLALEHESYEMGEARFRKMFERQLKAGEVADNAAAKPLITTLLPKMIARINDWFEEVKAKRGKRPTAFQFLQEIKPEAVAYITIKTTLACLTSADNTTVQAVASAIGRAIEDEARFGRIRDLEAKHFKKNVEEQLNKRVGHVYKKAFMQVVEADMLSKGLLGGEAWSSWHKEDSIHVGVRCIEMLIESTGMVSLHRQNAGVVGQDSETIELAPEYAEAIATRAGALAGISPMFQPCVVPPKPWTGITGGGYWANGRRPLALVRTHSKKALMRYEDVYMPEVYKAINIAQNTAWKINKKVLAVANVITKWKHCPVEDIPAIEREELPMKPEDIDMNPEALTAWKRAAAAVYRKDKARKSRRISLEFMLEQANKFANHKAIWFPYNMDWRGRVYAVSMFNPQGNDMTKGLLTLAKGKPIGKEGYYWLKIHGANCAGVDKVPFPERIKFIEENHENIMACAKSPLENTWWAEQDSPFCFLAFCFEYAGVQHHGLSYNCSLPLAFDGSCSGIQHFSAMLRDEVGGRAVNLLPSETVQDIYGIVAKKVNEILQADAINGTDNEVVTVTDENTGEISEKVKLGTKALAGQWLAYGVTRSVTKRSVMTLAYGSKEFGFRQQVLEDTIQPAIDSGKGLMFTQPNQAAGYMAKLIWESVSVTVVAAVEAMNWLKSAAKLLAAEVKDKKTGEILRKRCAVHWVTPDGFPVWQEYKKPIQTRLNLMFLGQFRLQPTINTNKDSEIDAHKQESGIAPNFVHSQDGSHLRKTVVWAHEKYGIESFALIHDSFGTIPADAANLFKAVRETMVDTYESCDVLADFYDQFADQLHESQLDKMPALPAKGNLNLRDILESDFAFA
Sequence of brome mosaic virus RdRp (P03594 whole entry): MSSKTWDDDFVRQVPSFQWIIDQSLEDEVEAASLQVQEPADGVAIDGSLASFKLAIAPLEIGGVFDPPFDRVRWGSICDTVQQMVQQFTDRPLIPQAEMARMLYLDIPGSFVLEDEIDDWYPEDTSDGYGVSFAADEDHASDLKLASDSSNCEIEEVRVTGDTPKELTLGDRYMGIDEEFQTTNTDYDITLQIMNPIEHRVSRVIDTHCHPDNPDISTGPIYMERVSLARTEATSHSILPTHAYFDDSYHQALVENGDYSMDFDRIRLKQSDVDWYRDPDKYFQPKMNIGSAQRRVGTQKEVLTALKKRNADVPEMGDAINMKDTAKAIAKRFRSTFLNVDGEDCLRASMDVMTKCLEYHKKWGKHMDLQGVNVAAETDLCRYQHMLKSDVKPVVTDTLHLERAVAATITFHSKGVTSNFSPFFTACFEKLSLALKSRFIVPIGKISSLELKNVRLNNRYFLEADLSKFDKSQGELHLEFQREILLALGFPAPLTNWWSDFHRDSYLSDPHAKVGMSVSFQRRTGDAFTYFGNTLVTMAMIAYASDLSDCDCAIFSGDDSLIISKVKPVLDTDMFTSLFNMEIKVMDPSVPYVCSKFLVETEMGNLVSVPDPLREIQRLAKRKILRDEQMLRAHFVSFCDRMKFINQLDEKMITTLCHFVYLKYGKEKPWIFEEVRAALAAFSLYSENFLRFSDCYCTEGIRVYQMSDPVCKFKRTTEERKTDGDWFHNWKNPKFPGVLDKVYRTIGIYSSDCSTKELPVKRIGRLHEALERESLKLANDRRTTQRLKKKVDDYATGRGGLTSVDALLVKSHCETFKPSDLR
Sequence of brome mosaic virus RdRp (P03588 whole entry, further chain): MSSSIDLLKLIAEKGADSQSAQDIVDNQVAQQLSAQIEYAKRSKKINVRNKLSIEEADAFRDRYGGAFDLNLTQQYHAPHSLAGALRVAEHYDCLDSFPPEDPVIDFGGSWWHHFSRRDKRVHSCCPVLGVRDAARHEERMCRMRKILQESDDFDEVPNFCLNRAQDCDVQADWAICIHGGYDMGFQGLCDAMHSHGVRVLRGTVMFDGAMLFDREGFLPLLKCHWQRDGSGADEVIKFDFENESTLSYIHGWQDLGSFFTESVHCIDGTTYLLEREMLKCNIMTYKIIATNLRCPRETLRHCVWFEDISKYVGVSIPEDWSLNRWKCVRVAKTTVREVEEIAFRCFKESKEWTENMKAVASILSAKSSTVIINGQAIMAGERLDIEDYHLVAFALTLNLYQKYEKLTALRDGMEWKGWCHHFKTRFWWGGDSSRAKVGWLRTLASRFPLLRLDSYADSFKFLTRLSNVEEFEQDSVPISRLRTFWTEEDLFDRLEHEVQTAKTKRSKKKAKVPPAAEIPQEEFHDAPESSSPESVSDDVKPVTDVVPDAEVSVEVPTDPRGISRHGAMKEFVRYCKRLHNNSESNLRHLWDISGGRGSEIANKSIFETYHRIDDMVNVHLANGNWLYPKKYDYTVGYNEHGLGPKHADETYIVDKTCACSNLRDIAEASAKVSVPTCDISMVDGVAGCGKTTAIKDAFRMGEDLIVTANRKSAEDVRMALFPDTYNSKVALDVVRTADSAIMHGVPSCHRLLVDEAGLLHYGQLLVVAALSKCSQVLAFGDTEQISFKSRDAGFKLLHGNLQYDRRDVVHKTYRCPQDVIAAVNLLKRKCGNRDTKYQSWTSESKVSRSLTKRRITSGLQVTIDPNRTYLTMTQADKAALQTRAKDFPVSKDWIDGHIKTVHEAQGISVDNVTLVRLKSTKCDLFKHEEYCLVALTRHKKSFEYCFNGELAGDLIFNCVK
Sequence of RdRp of bovine viral diarrhea virus (P19711 3270-3988): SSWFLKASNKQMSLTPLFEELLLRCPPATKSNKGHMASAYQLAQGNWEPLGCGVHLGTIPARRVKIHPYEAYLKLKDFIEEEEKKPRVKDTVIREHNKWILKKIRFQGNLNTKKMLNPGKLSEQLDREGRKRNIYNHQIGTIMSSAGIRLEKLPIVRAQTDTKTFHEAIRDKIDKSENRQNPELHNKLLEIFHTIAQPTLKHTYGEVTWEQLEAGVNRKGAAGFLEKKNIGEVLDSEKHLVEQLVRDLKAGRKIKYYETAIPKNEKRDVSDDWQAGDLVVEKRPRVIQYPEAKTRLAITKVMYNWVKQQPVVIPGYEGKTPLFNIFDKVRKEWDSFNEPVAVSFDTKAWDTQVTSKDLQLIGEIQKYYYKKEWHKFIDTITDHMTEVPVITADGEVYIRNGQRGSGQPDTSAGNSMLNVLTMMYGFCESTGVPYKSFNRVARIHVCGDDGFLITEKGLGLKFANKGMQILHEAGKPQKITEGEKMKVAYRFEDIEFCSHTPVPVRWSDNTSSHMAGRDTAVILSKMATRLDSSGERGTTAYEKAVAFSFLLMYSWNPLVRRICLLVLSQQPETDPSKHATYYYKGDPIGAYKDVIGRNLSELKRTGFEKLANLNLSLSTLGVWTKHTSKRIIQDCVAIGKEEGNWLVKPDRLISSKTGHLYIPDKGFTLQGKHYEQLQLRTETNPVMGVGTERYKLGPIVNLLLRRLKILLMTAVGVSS

Take `Nc1nc2c(ncn2[C@@H]2O[C@H](COP(=O)(O)OP(=O)(O)OP(=O)(O)Oc3ccc([N+](=O)[O-])cc3)[C@@H](O)[C@H]2O)c(=O)[nH]1` [PNP-GTP, Guanosine-5′-(γ-4-nitrophenyl)triphosphate]: the “substrate for the polymerase” value in series [1] and in series [4] was “suitable substrate” throughout. Further, the “RNA synthesis directed when used in place of GTP” value is given as “levels similar to reactions containing normal GTP” in series [1] (compared with normal GTP), “Identical results” in series [2] and “levels similar to reactions containing normal GTP” in series [4] (compared with normal GTP). In addition, the “absorbance at 405 nm” value in series [3] (plasma to 10% final volume, 7 h incubation) was “did not increase the absorbance at 405 nm”. The PNP levels result in series [3] (plasma with alkaline phosphatase, polymerase and noncognate template, 7 hours) is recorded as “increased PNP levels slightly”. Further, the “increase in absorbance due to PNP release” value in series [4] (alkaline phosphatase, WV-15C homodeoxycytidylate template, monitored at 405 nM) was “linear over a two-hour period”. Moreover, the “absorbance higher than background” value in series [4] (complete transcription reaction with cognate template, 3 h after start) is on record as > 7 fold. For the same compound, in series [4] (ten minutes after start, alkaline phosphatase, WV-15C template, 405 nM), the absorbance vs background result is listed as “absorbance at levels distinctly above background”. Moreover, the “PNP release / resistance to phosphatases” value in series [5] is reported as “did not result in PNP release”.
With `Nc1ncnc2c1ncn2[C@@H]1O[C@H](COP(=O)(O)OP(=O)(O)OP(=O)(O)Oc2ccc([N+](=O)[O-])cc2)[C@@H](O)[C@H]1O` [PNP-ATP, Adenosine-5′-(γ-4-nitrophenyl)triphosphate], the “trends in plasma reactions” value in series [3] (WV-15T template, compared with PNP-GTP results) is given as “Identical trends”. The “increase in absorbance at 405 nm” value in series [4] (homothymidylate template) is given as “linear increase”.
